Data set [1] concerns MCF7. Briefly: Induction of apoptosis in human MCF7 cells assessed as increase in apoptotic cells at 2 uM incubated for 12 hrs by AnnexinV-FITC/propidium iodide staining based flow cytometry relative to control (reference value: 2.00 %). It is filed as functional. Background: In flow cytometry, cells or beads pass a laser one at a time.
Data set [2] can be described thus: Toxicity in BALB/c mouse xenografted with human MCF7 cells assessed as effect on lung at 5 to 20 mg/kg, […] every other day measured after 14 days by hematoxylin and eosin staining based analysis. Format: organism-based. The following applies: in vivo, 336 h, dose 5-20 mg/kg, time 14 day. For orientation: A xenograft is tissue or cells of one species grown in another, often human tumour cells in immunodeficient mice.

Data set [3] has as its target T1, Ubiquitin carboxyl-terminal hydrolase 8 (Homo sapiens) (UniProt P40818).
T1 sequence (whole entry): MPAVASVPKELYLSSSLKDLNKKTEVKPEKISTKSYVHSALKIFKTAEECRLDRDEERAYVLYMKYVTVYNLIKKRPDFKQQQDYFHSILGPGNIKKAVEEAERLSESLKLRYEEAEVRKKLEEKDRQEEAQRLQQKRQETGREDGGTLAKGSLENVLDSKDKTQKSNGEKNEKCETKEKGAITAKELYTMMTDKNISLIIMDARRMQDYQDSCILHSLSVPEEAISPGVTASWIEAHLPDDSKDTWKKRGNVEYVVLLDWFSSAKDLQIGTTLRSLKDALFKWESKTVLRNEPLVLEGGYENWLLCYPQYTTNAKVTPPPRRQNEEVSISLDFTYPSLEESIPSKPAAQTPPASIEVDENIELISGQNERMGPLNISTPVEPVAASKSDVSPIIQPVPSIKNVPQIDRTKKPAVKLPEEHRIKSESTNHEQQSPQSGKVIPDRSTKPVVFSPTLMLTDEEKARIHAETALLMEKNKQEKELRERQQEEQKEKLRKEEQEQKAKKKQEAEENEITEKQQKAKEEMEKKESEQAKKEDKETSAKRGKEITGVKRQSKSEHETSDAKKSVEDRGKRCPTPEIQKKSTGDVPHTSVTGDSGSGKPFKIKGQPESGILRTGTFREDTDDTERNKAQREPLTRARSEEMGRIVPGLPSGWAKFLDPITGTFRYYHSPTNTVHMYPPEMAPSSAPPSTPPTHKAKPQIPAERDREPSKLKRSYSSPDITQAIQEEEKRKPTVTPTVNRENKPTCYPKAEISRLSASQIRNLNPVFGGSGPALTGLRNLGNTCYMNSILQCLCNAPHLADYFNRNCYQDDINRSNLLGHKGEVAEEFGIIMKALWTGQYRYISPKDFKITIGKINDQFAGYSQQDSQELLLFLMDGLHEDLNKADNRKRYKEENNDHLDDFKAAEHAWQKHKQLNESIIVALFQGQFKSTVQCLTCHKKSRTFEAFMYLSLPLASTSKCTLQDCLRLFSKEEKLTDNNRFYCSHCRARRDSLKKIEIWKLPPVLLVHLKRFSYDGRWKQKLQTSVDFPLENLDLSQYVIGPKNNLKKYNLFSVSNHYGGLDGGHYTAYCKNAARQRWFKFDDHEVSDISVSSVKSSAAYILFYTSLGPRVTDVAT
Briefly: Inhibition of N-terminal His6-tagged USP8 catalytic domain (734 to 1110 residues) in HEK293T intact cells up to 100 uM in presence of HA-Ub-VS probe by USP8 antibody based Western blotting assay. Format: cell-based. A general note: A western blot detects proteins with antibodies after separation by electrophoresis.

Data set [4] can be described thus: Toxicity in BALB/c mouse xenografted with human MCF7 cells assessed as change in body weight at 5 to 20 mg/kg, […] every other day for 14 days. It is filed as organism-based. The following applies: in vivo, 336 h, dose 5-20 mg/kg, time 14 day.
The subject of data set [5] is MCF7. Briefly: Downregulation of ERalpha expression in human MCF7 cells assessed as protein stability by measuring reduction in half life measured up to 24 hrs in presence of cycloheximide by Western blotting analysis. It is filed as functional, cell-based.
Data set [6] concerns MCF7. Briefly: Downregulation of ERalpha mRNA level in human MCF7 cells up to 5 uM measured after 24 hrs by RT-qPCR analysis. Format: functional, cell-based.
The subject of data set [7] is MCF7. Briefly: Induction of apoptosis in human MCF7 cells assessed as increase in apoptotic cells at 0.2 uM incubated for 12 hrs by AnnexinV-FITC/propidium iodide staining based flow cytometry relative to control (reference value: 2.00 %). Format: functional.
The test system of data set [8] is MCF7. Briefly: Induction of apoptosis in human MCF7 cells assessed as reduction in ErbB2 expression level up to 5 uM incubated for 24 hrs by Western blotting analysis. It is filed as functional, cell-based.
Data set [9] concerns MCF7. As to the kind of experiment: Antitumor activity against human MCF7 cells xenografted in BALB/c mouse assessed as reduction of EGFR phosphorylation in tumor tissue at 5 to 20 mg/kg, ip administered via gavage every other day for 14 days by immunohistochemistry analysis. It is filed as functional, organism-based. The settings on record: dose 5-20 mg/kg, time 14.0 day.
The subject of data set [10] is MCF7. Briefly: Induction of apoptosis in human MCF7 cells assessed as increase in apoptotic cells at 0.5 uM incubated for 12 hrs by AnnexinV-FITC/propidium iodide staining based flow cytometry relative to control (reference value: 2.00 %). It is filed as functional.
The nature of data set [11]: Toxicity in BALB/c mouse xenografted with human MCF7 cells assessed as effect on kidney at 5 to 20 mg/kg, […] every other day measured after 14 days by hematoxylin and eosin staining based analysis. Format: organism-based. The following applies: in vivo, 336 h, dose 5-20 mg/kg, time 14 day.
Data set [12] relates to MCF7. Briefly: Downregulation of progesterone receptor mRNA level in human MCF7 cells up to 5 uM measured after 24 hrs by RT-qPCR analysis. Format: functional, cell-based.
Data set [13] deals with T2, Ubiquitin carboxyl-terminal hydrolase 8 (Homo sapiens, UniProt P40818).
T2 sequence (P40818 whole entry): T1 sequence (whole entry)
Briefly: Inhibition of N-terminal His6-tagged USP8 (unknown origin) catalytic domain (734 to 1110 residues) expressed in Escherichia coli BL21 (DE3) cells assessed as deubiquitinating activity using ubiquitin-rhodamine -110 as substrate incubated for 30 mins followed by substrate addition measured after 30 mins by ubiquitin-rhodamine-110 based fluorometric assay.

In data set [14] the target is T1, Ubiquitin carboxyl-terminal hydrolase 8 (Homo sapiens). Briefly: Inhibition of N-terminal His6-tagged USP8 catalytic domain (734 to 1110 residues) in HEK293T intact cells up to 100 uM in presence of HA-Ub-VS probe by HA antibody based Western blotting assay. Format: cell-based.
Data set [15] deals with MCF7. As to the kind of experiment: Downregulation of progesterone receptor expression in human MCF7 cells assessed as protein stability by measuring reduction in half life measured up to 24 hrs in presence of cycloheximide by Western blotting analysis. It is filed as functional, cell-based.
Data set [16] in a line: Toxicity in BALB/c mouse xenografted with human MCF7 cells assessed as effect on liver at 5 to 20 mg/kg, […] every other day measured after 14 days by hematoxylin and eosin staining based analysis. The settings on record: in vivo, 336 h, dose 5-20 mg/kg, time 14 day. Format: organism-based.
For data set [17], the target named is T1, Ubiquitin carboxyl-terminal hydrolase 8 (Homo sapiens). Briefly: Inhibition of N-terminal His6-tagged USP8 catalytic domain (734 to 1110 residues) in HEK293T cell lysates up to 100 uM in presence of HA-Ub-VS probe by USP8 antibody based Western blotting assay. Format: subcellular.
In data set [18] the test system is MCF7. Briefly: Induction of apoptosis in human MCF7 cells assessed as increase in apoptotic cells at 5 uM incubated for 12 hrs by AnnexinV-FITC/propidium iodide staining based flow cytometry relative to control (reference value: 2.00 %). It is filed as functional.
Data set [19] has as its system MCF7. Briefly: Downregulation of ERalpha expression in human MCF7 cells measured after 24 hrs by Western blotting analysis. It is filed as functional, cell-based. The settings on record: dose 0.5-5 µM, DDE = dose-dependent effect.
Data set [20] has as its system MCF7. As to the kind of experiment: Induction of apoptosis in human MCF7 cells assessed as reduction in ErbB3 expression level up to 5 uM incubated for 24 hrs by Western blotting analysis. Format: functional, cell-based.

Activity calls are given as the source filed them. The calls are words filed in the database; no cut-off is given here.

The IC50 is the concentration at which inhibition is half-maximal. For the compound `Cc1n[nH]c(C)c1Oc1c(O)cc(O)c2c(=O)cc(-c3ccc(N4CCN(c5ccccn5)CC4)cc3)oc12`, the Activity in data set [1] is listed as 12.57%; in [2] it was “Non-Toxic”; in data set [4], “Non-Toxic”; in data set [7] it was 1.9%; in [10], 2.5%; in data set [11], “Non-Toxic”. The figures for the Activity entry in data set [16], in [18] and in data set [19] were “Non-Toxic”, 14.46% and “Dde”, respectively. The inhibition result in [3], in data set [14] and in [17] was “Active” each time. The outcome in [5], in data set [6], in data set [8], in [9], in data set [12] and in data set [15] was Active. In addition, the result in [20] was Active. In [13], the IC50 is 1.2 µM.

(Values after ChEMBL document CHEMBL5131570, “Discovery of Potent Small-Molecule USP8 Inhibitors for the Treatment of Breast Cancer through Regulating ERα Expression” (J Med Chem, 2022).)
